Consider five compounds from patent US6887202B2, “Systems and methods for monitoring health and delivering drugs transdermally” (Science Applications International Corporation, priority 2000, dated 2005).

Each structure is given as a SMILES string. Read-outs that look alike come from different tables or passages of the source.

As usually defined, the Kd is the free concentration of one partner at which half of the binding sites on the other are occupied at equilibrium, for simple one-to-one binding.

The target of assay [1] is T1, α3/β4 nAChR (Rattus norvegicus, UniProt P04757+P12392).
T1 construct: expressed in transfected cells
Briefly: Frontal chromatography with α3/β4 nAChR-IAM stationary phase ([3H]-EB marker). The class given is binding. As for the experimental part: Rat whole forebrain or transfected cells are suspended in 50 mM Tris-HCI, pH 7.4, (buffer A), homogenized for 30 seconds with Brinkmann Polytron, and centrifuged at 40,000×g for 10 min at 4° C. The pellet is resuspended in 6 ml of 2% deoxycholate or 2% cholate in buffer A and stirred for 2 hours. The mixture is centrifuged at 35,000×g for 30 minutes, and the supernatant containing nAChR-deoxycholate solution is collected.
Dried IAM particles are suspended in 4 ml of the obtained detergent solutions containing nAChR subunits or subtypes. For the immobilization of one nAChR subtype, the mixture of IAM-detergent-receptor is stirred for 1 hour at room temperature. The suspension is dialyzed against 2×1 L buffer A for 24 hours at 4° C. The IAM LC support with immobilized nAChRs is then washed with buffer A, centrifuged and the solid collected.
Chromatography based on nAChR-LAMcolumn or nAChR-liposome-Superdex 200 column: The nAChR-IAM particles or nAChR-Superdex gel beads are packed in a HR5/2 glass column and connected to a HPLC pump. […] All chromatographic experiments are performed at flow rate 0.4 ml/min at room temperature.
The chromatographic data is summed up in 1-min intervals and smoothed using the Microsoft Excel program with a 10 point moving average.

Assay [2] concerns the target T1, α3/β4 nAChR. The experiment in a line: Ligand binding assay using cell membrane homogenates.
In assay [3] the target is GABAA receptor. The note with it: read-out: Kd, Binding Assays; classical binding assays.
For assay [4], the target named is GABAA receptor. Briefly: Frontal chromatography on immobilized GABAA receptor (GR-IAM), [3H]-flunitrazepam marker. It counts as binding, rat. The procedure:
Supernatant is discarded.
All chromatographic experiments are performed at flow rate 0.4 ml/min at room temperature. […] The chromatographic data is summed up in 1-min intervals and smoothed using the Microsoft Excel program with a 10 point moving average.

[5] abbreviates: a3/(34-IAM stationary phase (0.5 × 1.3 cm)), read-out: Kd (frontal chromatography).

T1 sequence (P04757 26-499): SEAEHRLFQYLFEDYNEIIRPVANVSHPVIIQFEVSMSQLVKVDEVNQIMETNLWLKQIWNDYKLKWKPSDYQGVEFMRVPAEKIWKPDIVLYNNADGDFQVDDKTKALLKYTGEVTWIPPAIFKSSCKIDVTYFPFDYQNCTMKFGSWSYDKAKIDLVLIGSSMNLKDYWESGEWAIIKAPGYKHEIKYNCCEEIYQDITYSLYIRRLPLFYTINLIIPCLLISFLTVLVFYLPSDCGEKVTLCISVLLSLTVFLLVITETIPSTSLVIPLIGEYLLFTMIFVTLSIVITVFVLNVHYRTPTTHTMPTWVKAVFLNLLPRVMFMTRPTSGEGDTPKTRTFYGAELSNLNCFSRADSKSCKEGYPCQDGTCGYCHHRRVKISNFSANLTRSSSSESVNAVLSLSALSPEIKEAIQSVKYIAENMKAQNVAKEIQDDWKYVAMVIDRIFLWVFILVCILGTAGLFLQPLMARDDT
T1 sequence (P12392 21-495): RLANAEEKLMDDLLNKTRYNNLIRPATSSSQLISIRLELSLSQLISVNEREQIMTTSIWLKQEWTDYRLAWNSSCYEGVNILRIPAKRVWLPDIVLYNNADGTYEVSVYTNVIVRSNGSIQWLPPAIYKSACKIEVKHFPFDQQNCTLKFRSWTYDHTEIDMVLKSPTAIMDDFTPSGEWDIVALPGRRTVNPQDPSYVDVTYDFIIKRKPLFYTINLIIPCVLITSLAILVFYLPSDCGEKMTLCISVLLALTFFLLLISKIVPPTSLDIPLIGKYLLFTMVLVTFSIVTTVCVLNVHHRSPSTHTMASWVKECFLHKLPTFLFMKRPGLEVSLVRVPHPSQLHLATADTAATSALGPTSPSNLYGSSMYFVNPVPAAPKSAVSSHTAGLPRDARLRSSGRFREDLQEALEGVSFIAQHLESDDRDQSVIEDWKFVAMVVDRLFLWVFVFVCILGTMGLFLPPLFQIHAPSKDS

Consider `CN1CCCC1c1cccnc1` (single isomer, unassigned; (-)) [(−)-Nicotine], for which, in assay [1], the “mobile phase concentration required to decrease the retention volume of 60 pM [3H]-EB from 9.5 ml to 6 ml” value turned out to be 45 nM.

On to `c1cncc(OC[C@@H]2CCN2)c1` [A85380], for which the Kd in assay [1] (setting [5]) turned out to be 17.2 ± 0.5 nM; in assay [2], 73.6 ± 6.3 nM. In addition, the “mobile phase concentration required to decrease the retention volume of 60 pM [3H]-EB from 9.5 ml to 6 ml” value in assay [1] (α3/β4 nAChR column (0.5×1.25 cm)) is 1.7 nM.

In assay [1], `CN1[C@@H]2CC[C@H]1C[C@@H](OC(=O)C(CO)c1ccccc1)C2` (stereo partly shown) [Atropine] showed an equilibrium dissociation constant (Kd) of 14600 nM.

Regarding `C[N+](C)(C)CCOC(N)=O` [Carbachol], the “mobile phase concentration required to decrease the retention volume of 60 pM [3H]-EB from 9.5 ml to 6 ml” value in assay [1] was 1,200 nM. Further, the Kd in assay [1] (setting [5]) was determined as 1280 nM; in assay [2], 3840 nM.

As for `CN1C(=O)CN=C(c2ccccc2)c2cc(Cl)ccc21` [Diazepam], the Kd came out at 1.3 nM in assay [3] and 1 nM in assay [4].
